According to US8623377B2, “Joint-homing peptides and uses thereof” (University of Maryland, Baltimore, priority 2011, dated 2014):

Experiments:
ERK1/2 = assay: VEGF-induced signaling in HUVECs, Western blot p-ERK1/2; format: cell-based, human; conditions: peptide 10, 50, 100 μg/mL 1 h, then VEGF 10 ng/mL 20 min
Source text: FIG. 6A: HUVECs were stimulated with VEGF and treated with the indicated concentrations of peptides. Phosphorylated ERK1/2 and Akt, as well as total ERK1/2 and Akt, were detected by Western blot analysis. FIG. 6B: Thereafter, p-ERK1/2 and p-Akt were quantified by densitometry, normalized to total ERK1/2 (left) and Akt (right), respectively, and compared with cells in serum-free medium. The results of a representative experiment from a set of three independent experiments are shown. *P<0.05, compared with the positive control.
HUVECs were grown in F-12K medium in the presence of endothelial cell growth supplement (ECGS) (BD Biosciences) and 15% FBS. Confluent cells were starved in basal medium (without ECGS and FBS) for 6 h. Then the cells were pretreated for 1 h with different concentrations (10, 50, and 100 μg/mL) of a peptide (NQR, ADK, or RGD) in fresh basal medium, followed by treatment with VEGF (10 ng/mL) for another 20 min. The conditional medium was discarded, and the cells were lysed using a lysis buffer containing protease inhibitors and phosphatase inhibitors. The cell lysate was then centrifuged, and the resulting supernatant was used for analysis of signaling molecules using specific antibodies to human pERK1/2, ERK1/2, pAkt, Akt, and GAPDH (Cell Signaling Technology) by Western blot analysis. The intensity of the bands in the gel was quantified by densitometry. The levels of p-ERK1/2 and p-Akt were normalized to total ERK1/2 and Akt, respectively, and compared with cells in serum-free medium.

[1] = tested on: CD31-expressing endothelial cells from an arthritic rat joint; assay: Binding of fluorescein-labeled peptide to CD31-expressing endothelial cells from arthritic rat joint; format: cell-based
Protocol: FIG. 2A: Binding of specific phage encoding the peptide NQR or ADK to the vascular endothelium was visualized by immunohistochemical examination of the hind paw section of the rthritic rats using the anti-T7 phage antibody. The binding of phage was tested in the presence or absence of the corresponding synthetic peptide. BV, blood vessel, L, lumen. FIG. 2B: Arthritic rats were injected with specific phage (ADK phage, left; NQR phage, center; or RGD phage, right) in the presence or absence of the corresponding synthetic peptide, and the titer of the phage recovered from the synovial tissue was assessed. *P<0.01. FIG. 2C: CD31-expressing endothelial cells were isolated from arthritic rat joints (upper) or the liver (lower) and stained with DAPI (blue), FITC-labeled peptide NQR (green), or Alexa Fluor 594-labeled anti-rat CD31 antibody (red). Also shown is the staining overlay (merge) of green and red (yellow). The inset is an enlarged view of a single cell; original magnification, 20×. FIG. 2D: LPS-stimulated HUVECs were stained with DAPI and FITC-labeled peptide NQR and observed under a fluorescence microscope, original magnification, 100×. […]

HUVECs = assay: Endothelial tube (tubule) formation on Matrigel with VEGF; format: cell-based, human; conditions: VEGF 10 ng/mL, peptide 0-100 μg/mL
Protocol: FIG. 4A: Draining lymph node leukocytes from arthritic rats were dye-tagged with PKH67 and injected i.v. into arthritic rats. One group of rats was left untreated, and the other groups were treated with ADK or NQR peptide. After 24 hours, the synovium-infiltrating cells (SICs) were harvested from the joints, subjected to cytospin, and analyzed by fluorescence microscopy (left). In parallel, another set of synovium-infiltrating cells were stained with PE-labeled anti-CD3 or anti-CD 11b/c+ antibody and analyzed by flow cytometry (right). FIG. 4B: HUVECs were cultured on Matrigel-coated wells for 24 hours in the presence of VEGF (10 ng/mL) and various concentrations (0-100 μg/mL) of NQR (left), ADK (center), and RGD (right) peptides. The branches of vessel-like tubes were counted. A reprensentative set of results is shown. *P<0.05, compared with the VEGF-alone control.
HUVECs (1×10^4) were cultured in 80 μL/well of growth factor-reduced Matrigel (BD Biosciences) in a 96-well plate in 100 μL/well of F-12K medium (with no supplements). These cells were then treated for 20 h with VEGF (R&D Systems) in the presence or absence of different concentrations of peptides (NQR, ADK, or RGD). Tubule formation was observed under a microscope, quantitated, and photographed.

## CLDNQRPKC (Synthetic peptide homing to joint in an animal) [NQR peptide, joint-homing phage-derived synthetic peptide]
ERK1/2
  effect on VEGF-induced pERK: induced a decrease in pERK
[1]; CD31-expressing endothelial cells, arthritic rat joint
  binding of fluorescein-labeled peptide to joint-derived endothelial cells: bound specifically to the joint-derived
[1]; joint-derived endothelial cells
  colocalization of peptide with CD31: colocalized with CD31
HUVECs
  effect on endothelial cell tube formation: inhibited tube formation
